From PubChem BioAssay AID1963433 (Molecular Pharmacology Branch, DTP, NCI, 2024)
Where “and” joins values, the source holds several entries; their conditions need not be identical. Equal values may be shown once. Each block holds one molecule with its values, some of them ahead of it.

System: 772245-204-R-J1-PDC complex spheroid growth
Experiment: Anticancer human tumor 772245-204-R-J1-PDC patient-derived rhabdomyosarcoma cell line growth inhibition [Asc]
Details: for viability, T/C: stronger effect = lower value
How it was run: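 Complex solid-tumor spheroids incorporating human endothelial and mesenchymal stem cells received single agents or combinations over half-log dilution ranges anchored to clinical Cmax.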

[1] = curve of first compound, second compound 0.03 µM
[2] = curve of first compound, second compound 0.0949 µM
[3] = curve of first compound, second compound 0.3 µM
[4] = curve of first compound, second compound 0.949 µM
[5] = curve of first compound, second compound 3 µM
[6] = second compound 0.03 µM, first compound 0.0316 µM
[7] = second compound 0.03 µM, first compound 0.1 µM
[8] = second compound 0.03 µM, first compound 0.316 µM
[9] = second compound 0.03 µM, first compound 1 µM
[10] = second compound 0.03 µM, first compound 3.16 µM
[11] = second compound 0.03 µM, first compound 10 µM
[12] = second compound 0.0949 µM, first compound 0.0316 µM
[13] = second compound 0.0949 µM, first compound 0.1 µM
[14] = second compound 0.0949 µM, first compound 0.316 µM
[15] = second compound 0.0949 µM, first compound 1 µM
[16] = second compound 0.0949 µM, first compound 3.16 µM
[17] = second compound 0.0949 µM, first compound 10 µM
[18] = second compound 0.3 µM, first compound 0.0316 µM
[19] = second compound 0.3 µM, first compound 0.1 µM
[20] = second compound 0.3 µM, first compound 0.316 µM
[21] = second compound 0.3 µM, first compound 1 µM
[22] = second compound 0.3 µM, first compound 3.16 µM
[23] = second compound 0.3 µM, first compound 10 µM
[24] = second compound 0.949 µM, first compound 0.0316 µM
[25] = second compound 0.949 µM, first compound 0.1 µM
[26] = second compound 0.949 µM, first compound 0.316 µM
[27] = second compound 0.949 µM, first compound 1 µM
[28] = second compound 0.949 µM, first compound 3.16 µM
[29] = second compound 0.949 µM, first compound 10 µM
[30] = second compound 3 µM, first compound 0.0316 µM
[31] = second compound 3 µM, first compound 0.1 µM
[32] = second compound 3 µM, first compound 0.316 µM
[33] = second compound 3 µM, first compound 1 µM
[34] = second compound 3 µM, first compound 3.16 µM
[35] = second compound 3 µM, first compound 10 µM
[36] = curve of first compound, second compound 0.1 µM
[37] = curve of first compound, second compound 0.316 µM
[38] = curve of first compound, second compound 1 µM
[39] = curve of first compound, second compound 3.16 µM
[40] = curve of first compound, second compound 10 µM
[41] = second compound 0.1 µM, first compound 0.0316 µM
[42] = second compound 0.1 µM, first compound 0.1 µM
[43] = second compound 0.1 µM, first compound 0.316 µM
[44] = second compound 0.1 µM, first compound 1 µM
[45] = second compound 0.316 µM, first compound 0.0316 µM
[46] = second compound 0.316 µM, first compound 0.1 µM
[47] = second compound 0.316 µM, first compound 0.316 µM
[48] = second compound 0.316 µM, first compound 1 µM
[49] = second compound 1 µM, first compound 0.0316 µM
[50] = second compound 1 µM, first compound 0.1 µM
[51] = second compound 1 µM, first compound 0.316 µM
[52] = second compound 1 µM, first compound 1 µM
[53] = second compound 3.16 µM, first compound 0.0316 µM
[54] = second compound 3.16 µM, first compound 0.1 µM
[55] = second compound 3.16 µM, first compound 0.316 µM
[56] = second compound 3.16 µM, first compound 1 µM
[57] = second compound 10 µM, first compound 0.0316 µM
[58] = second compound 10 µM, first compound 0.1 µM
[59] = second compound 10 µM, first compound 0.316 µM
[60] = second compound 10 µM, first compound 1 µM
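Note: compound exposure lasted seven days.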
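Throughout, for viability, T/C: 100% = DMSO vehicle control viability.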

Compound: C#Cc1c(F)ccc2cc(O)cc(-c3ncc4c(N5CC6CCC(C5)N6)nc(OCC56CCCN5CC(F)C6)nc4c3F)c12 (stereo unspecified) + Cc1c(S(C)(=O)=O)c(-c2cc(F)cc(N3CCN(c4ccc(NS(=O)(=O)c5ccc(NC(CCN6CCC(C(=O)OCCCP(=O)(O)O)CC6)CSc6ccccc6)c(S(=O)(=O)C(F)(F)F)c5)cc4)CC3)c2)c(-c2ccc(Cl)cc2)n1C(C)C
IC50 [36]: 9.71 µM | IC50 [37]: 2.03 µM | IC50 [38]: 3.74 µM | IC50 [39]: < 0.0316 µM | IC50 [40]: 1.03 µM | viability, T/C [41]: 72.8% | viability, T/C [42]: 93.2% | viability, T/C [43]: 85.6% | viability, T/C [44]: 71.6% | viability, T/C (second compound 0.1 µM, first compound 3.16 µM): 72.7% | viability, T/C (second compound 0.1 µM, first compound 10 µM): 49% | viability, T/C [45]: 60.4% | viability, T/C [46]: 66.2% | viability, T/C [47]: 62.3% | viability, T/C [48]: 56% | viability, T/C (second compound 0.316 µM, first compound 3.16 µM): 46.3% | viability, T/C (second compound 0.316 µM, first compound 10 µM): 38.2% | viability, T/C [49]: 49.8% | viability, T/C [50]: 55.4% | viability, T/C [51]: 51.5% | viability, T/C [52]: 56.8% | viability, T/C (second compound 1 µM, first compound 3.16 µM): 54.1% | viability, T/C (second compound 1 µM, first compound 10 µM): 29.7% | viability, T/C [53]: 49.8% | viability, T/C [54]: 46.7% | viability, T/C [55]: 47.1% | viability, T/C [56]: 37% | viability, T/C (second compound 3.16 µM, first compound 3.16 µM): 30.7% | viability, T/C (second compound 3.16 µM, first compound 10 µM): 13.8% | viability, T/C [57]: 44% | viability, T/C [58]: 55.5% | viability, T/C [59]: 44% | viability, T/C [60]: 58.3% | viability, T/C (second compound 10 µM, first compound 3.16 µM): 34% | viability, T/C (second compound 10 µM, first compound 10 µM): 18.5%

Compound: Cc1c(S(C)(=O)=O)c(-c2cc(F)cc(N3CCN(c4ccc(NS(=O)(=O)c5ccc(NC(CCN6CCC(C(=O)OCCCP(=O)(O)O)CC6)CSc6ccccc6)c(S(=O)(=O)C(F)(F)F)c5)cc4)CC3)c2)c(-c2ccc(Cl)cc2)n1C(C)C (stereo unspecified)
viability, T/C (compound 0.1 µM): 82.6% [middle of 14 runs] | viability, T/C (compound 0.316 µM): 67.3% [middle of 14 runs] | viability, T/C (compound 1 µM): 53.8% [middle of 14 runs] | viability, T/C (compound 10 µM): 45.4% [middle of 14 runs]

Compound: CCN1CCN(Cc2ccc(Nc3ncc(F)c(-c4cc(F)c5nc(C)n(C(C)C)c5c4)n3)nc2)CC1 + Cc1c(S(C)(=O)=O)c(-c2cc(F)cc(N3CCN(c4ccc(NS(=O)(=O)c5ccc(NC(CCN6CCC(C(=O)OCCCP(=O)(O)O)CC6)CSc6ccccc6)c(S(=O)(=O)C(F)(F)F)c5)cc4)CC3)c2)c(-c2ccc(Cl)cc2)n1C(C)C
IC50 [36]: > 1 µM | IC50 [37]: 0.436 µM | IC50 [38]: 0.0239 µM | IC50 [39]: < 0.00316 µM | IC50 [40]: < 0.00316 µM | viability, T/C (second compound 0.1 µM, first compound 0.00316 µM): 77.4% | viability, T/C (second compound 0.1 µM, first compound 0.01 µM): 78.2% | viability, T/C [41]: 77.3% | viability, T/C [42]: 82.1% | viability, T/C [43]: 83.4% | viability, T/C [44]: 74.7% | viability, T/C (second compound 0.316 µM, first compound 0.00316 µM): 68.9% | viability, T/C (second compound 0.316 µM, first compound 0.01 µM): 58.1% | viability, T/C [45]: 60.5% | viability, T/C [46]: 58.5% | viability, T/C [47]: 51.7% | viability, T/C [48]: 45.5% | viability, T/C (second compound 1 µM, first compound 0.00316 µM): 53.9% | viability, T/C (second compound 1 µM, first compound 0.01 µM): 52.9% | viability, T/C [49]: 50% | viability, T/C [50]: 37.7% | viability, T/C [51]: 22.8% | viability, T/C [52]: 9.85% | viability, T/C (second compound 3.16 µM, first compound 0.00316 µM): 49% | viability, T/C (second compound 3.16 µM, first compound 0.01 µM): 42.5% | viability, T/C [53]: 42% | viability, T/C [54]: 32.6% | viability, T/C [55]: 15.1% | viability, T/C [56]: 5.17% | viability, T/C (second compound 10 µM, first compound 0.00316 µM): 49.7% | viability, T/C (second compound 10 µM, first compound 0.01 µM): 42.3% | viability, T/C [57]: 41% | viability, T/C [58]: 29.9% | viability, T/C [59]: 15.5% | viability, T/C [60]: 3.23%

The next lines start with results.

IC50 [1]: > 10 µM | IC50 [2]: > 10 µM | IC50 [3]: > 10 µM | IC50 [4]: > 10 µM | IC50 [5]: > 10 µM
Compound: C#Cc1c(F)ccc2cc(O)cc(-c3ncc4c(N5CC6CCC(C5)N6)nc(OCC56CCCN5CC(F)C6)nc4c3F)c12 (stereo unspecified) + CCN1C(C(=O)NC23CCC(C(=O)O)(CC2)CC3)C(c2cccc(Cl)c2F)C2(C(=O)Nc3cc(Cl)ccc32)C12CCCCC2
viability, T/C [6]: 98.8% | viability, T/C [7]: 106% | viability, T/C [8]: 94.8% | viability, T/C [9]: 95.8% | viability, T/C [10]: 118% | viability, T/C [11]: 89.5% | viability, T/C [12]: 98.4% | viability, T/C [13]: 91.9% | viability, T/C [14]: 93% | viability, T/C [15]: 86% | viability, T/C [16]: 93.5% | viability, T/C [17]: 78.4% | viability, T/C [18]: 108% | viability, T/C [19]: 99.2% | viability, T/C [20]: 106% | viability, T/C [21]: 111% | viability, T/C [22]: 81.2% | viability, T/C [23]: 80.6% | viability, T/C [24]: 90% | viability, T/C [25]: 90.9% | viability, T/C [26]: 86% | viability, T/C [27]: 86.9% | viability, T/C [28]: 91.6% | viability, T/C [29]: 76.5% | viability, T/C [30]: 73.1% | viability, T/C [31]: 79.2% | viability, T/C [32]: 77.1% | viability, T/C [33]: 67.8% | viability, T/C [34]: 67.3% | viability, T/C [35]: 54.2%

IC50 [1]: 3.92 µM | IC50 [2]: 3.94 µM | IC50 [3]: 4.43 µM | IC50 [4]: 3.29 µM | IC50 [5]: 2.11 µM
Compound: C=C(F)C(=O)N1CCN(c2nc(OCC3CCCN3C)nc3c2CCN(c2cccc4cccc(Cl)c24)C3)CC1CC#N (stereo unspecified) + CCN1C(C(=O)NC23CCC(C(=O)O)(CC2)CC3)C(c2cccc(Cl)c2F)C2(C(=O)Nc3cc(Cl)ccc32)C12CCCCC2
viability, T/C [6]: 94.9% | viability, T/C [7]: 101% | viability, T/C [8]: 83.1% | viability, T/C [9]: 97.2% | viability, T/C [10]: 61.6% | viability, T/C [11]: 0.2% | viability, T/C [12]: 93.7% | viability, T/C [13]: 94.5% | viability, T/C [14]: 85.3% | viability, T/C [15]: 89.6% | viability, T/C [16]: 61.7% | viability, T/C [17]: 0.17% | viability, T/C [18]: 95.8% | viability, T/C [19]: 96.7% | viability, T/C [20]: 85.6% | viability, T/C [21]: 87% | viability, T/C [22]: 71.8% | viability, T/C [23]: 0.18% | viability, T/C [24]: 92.3% | viability, T/C [25]: 83.7% | viability, T/C [26]: 91.6% | viability, T/C [27]: 96.7% | viability, T/C [28]: 51.9% | viability, T/C [29]: 0.16% | viability, T/C [30]: 72.7% | viability, T/C [31]: 79.8% | viability, T/C [32]: 72.5% | viability, T/C [33]: 73% | viability, T/C [34]: 37.5% | viability, T/C [35]: 0.38%

IC50 (curve of compound): > 3 µM
Compound: Cc1nc(N2CCC3(CC2)COC(C)C3N)c(CO)nc1Sc1ccnc(N)c1Cl (stereo unspecified)
viability, T/C (compound 0.00949 µM): 98.8% and 123% and 100% | viability, T/C (compound 0.03 µM): 104% and 119% and 120% | viability, T/C (compound 0.0949 µM): 112% and 104% and 89.2% | viability, T/C (compound 0.3 µM): 106% and 90.1% and 102% | viability, T/C (compound 0.949 µM): 99.9% and 85.1% and 77% | viability, T/C (compound 3 µM): 91.5% and 57.5% and 54.3%
